Measurements from patent publication US6586413B2, “Methods and compositions for reducing ischemic injury of the heart by administering adenosine receptor agonists and antagonists” (The United States of America as represented by the …, priority 1999, dated 2003).
Like-named read-outs stand apart in the source and are kept apart here.

How the values were obtained:
[1] = target: A3 receptor; conditions: cited from earlier work
[2] = test system: ventricular myocytes cultured from chick embryos; test: Pharmacological preconditioning: 5 min exposure to agent, then 90 min simulated ischemia; assay type: cell-based; conditions: for preconditioning / cardioprotective effect: agent alone, 5 min exposure before 90 min ischemia
Protocol: FIG. 14 is a graph showing that the partial A1 receptor agonist, 8-butylaminoCPA, mimics the cardioprotective effect of ischemic preconditioning. Ventricular myocytes were cultured from chick embryos 14 days in ovo. The ability of the partial A1 agonist, 8-butylaminoCPA (8-butylamino-N^6-cyclopentyladenosine), to induce preconditioning was determined. In brief, myocytes were exposed to 8-butylaminoCPA at the indicated concentrations for 5 min, incubated for 10 min with agonist-free medium, and then exposed to simulated ischemia for 90 min. The extent of myocyte injury was quantitated at the end of the 90 min period by determinating the percentage of cells killed and the amount of creatine kinase (CK) released (units per milligram of cell protein). Data are means±SE of values from five independent experiments.
(§1) Determination of myocyte injury was made at the end of the ninety-minute hypoxia, at which time myocytes were taken out of the hypoxic incubator and re-exposed to room air (normal % O2). Aliquots of the media were then obtained for creatine kinase (CK) activity measurement, which is followed by quantitation of the number of viable cells. Measurement of basal level of cell injury was made after parallel incubation of control cells under normal % O2. The extent of hypoxia-induced injury to the ventricular cell was quantitatively determined by the percentages of cells killed and by the amount of CK released into the media according to a previously described method (16, 23). […] In brief, the media were replaced with a trypsin-EDTA buffer to detach the cells, which was then followed by sedimentation of the viable myocytes. Parallel changes in % cells killed and CK released (16, 23) further validated this assay for % cells killed. The amount of CK was measured as enzyme activity (unit/mg), and increases in CK activity above the control level were determined. The percentage of cells killed was calculated as the number of cells obtained from the control group (representing cells not subjected to any hypoxia or drug treatment) minus the number of cells from the treatment group divided by number of cells in control group multiplied by 100%.
Media were then replaced with fresh media, which was then followed by exposure to 90-minute simulated ischemia and the data graphed.

[3] = target: T1, human adenosine A3 receptor (Homo sapiens, UniProt P0DMS8); test: Preconditioning in chick atrial myocytes transfected with the human A3 receptor; assay type: cell-based; conditions: hA3R-transfected vs vector-transfected atrial myocytes
T1 construct: full length cDNA encoding human adenosine A3 receptor subcloned in pcDNA3; expressed in transfected cells; host or cells: chick embryo atrial myocytes, transient calcium phosphate transfection with pcDNA3/hA3R
T1 sequence (P0DMS8 1-318): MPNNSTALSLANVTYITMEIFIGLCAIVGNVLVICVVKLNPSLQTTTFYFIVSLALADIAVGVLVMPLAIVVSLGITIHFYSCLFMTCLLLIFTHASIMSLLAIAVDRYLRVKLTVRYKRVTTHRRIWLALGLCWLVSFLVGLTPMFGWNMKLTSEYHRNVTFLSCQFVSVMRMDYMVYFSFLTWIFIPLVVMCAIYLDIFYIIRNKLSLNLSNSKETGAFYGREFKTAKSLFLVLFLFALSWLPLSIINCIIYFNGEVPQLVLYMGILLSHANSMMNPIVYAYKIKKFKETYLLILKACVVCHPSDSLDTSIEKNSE
Protocol: Transfection of chick atrial myocytes with the human A3 receptor—Atrial cells were cultured from chick embryos 14 days in ovo and transiently transfected with pcDNA3 (empty vector) or with pcDNA3/hA3R (full length cDNA encoding human adenosine A3 receptor subcloned in pcDNA3) using the calcium phosphate precipitation method. Forty-eight hours after transfection, the cells were exposed to the compounds of the invention and the percentage of myocytes killed during simulated ischemia was determined.
The transfected myocytes were then exposed to the compound for 5 minutes, which was followed by replacement with fresh media and myocytes exposed to normal conditions (non-ischemic) for 10 minutes prior to being exposed to ninety minutes of ischemia. The decrease in the number of myocytes killed in A3 receptor cDNA-transfected myocytes as compared to vector-transfected myocytes was plotted as a function of the concentration of the compound. This decrease in myocytes killed represented an index of the protection mediated via the human adenosine A3 receptor.

[4] = test system: cardiac ventricular myocytes cultured from chick embryos; test: Hypoxia-induced myocyte injury, agent present during prolonged (90 min) hypoxia with glucose deprivation; assay type: cell-based; conditions: for cardioprotective effect when present during prolonged hypoxia (CK released, % myocytes killed): agonist present during prolonged hypoxia/simulated ischemia; for creatine kinase released during prolonged simulated ischemia: increasing concentrations, presence and absence of DPCPX (FIGS. 3A-3D)
Protocol: Ventricular cells were cultured from chick embryos 14 days in ovo as previously described (16, 23). Cells were cultivated in a humidified 5% CO2-95% air mixture at 37° C. […] The medium was changed to a HEPES-buffered medium containing (mM) 139 NaCl, 4.7 KCl, 0.5 MgCl2, 0.9 CaCl2, 5 HEPES (N-2-hydroxyethylpiperazine-N′-2-ethanesulfonic acid) and 2% fetal bovine serum, pH 7.4, 37° C. before exposing the myocytes to the various conditions at 37° C. Control myocytes were maintained in the HEPES-buffered media under room air. Ninety-minute exposure of the myocytes to hypoxia with glucose deprivation was used to induce cell injury. Hypoxia was produced by placing the cells in a hypoxic incubator (NuAire) where O2 was replaced by N2 as previously described (16,23). Effects of adenosine receptor agonists and antagonists on the extent of myocyte injury were determined by exposure of the prepared cells to these agents during the prolonged hypoxia.
as §1

[5] = test system: isolated cardiac myocytes; test: Apoptotic cell death by DNA laddering on 1.5% agarose gel; assay type: cell-based; conditions: for apoptotic cell death (DNA laddering): 90 min ischemia and 30 min reoxygenation, 10 nM Cl-IB-MECA, 1 μM MRS1191
Protocol: Such smearing is indicative of a culmination of the apoptotic cell death pathway. Isolated cardiac myocytes were exposed to 90-min ischemia and 30-min reoxygenation (lanes 4 and 5). […] Lanes 1 and 2 represent myocytes not exposed to ischemia or any agent. Data were representative of three experiments.
Isolated cardiac myocytes were exposed to prolonged moderate simulated ischemia (17 hours with 2-3% O2). Lane 3 represents myocytes not exposed to ischemia or any agent. Lane 5 represents myocytes exposed to 17 hours of ischemia. […] Data were representative of three experiments.
Lane 3 represents myocytes not exposed to any agent. Lane 5 represents cardiac myocytes exposed (for three hours) to an agent (a P2X receptor agonist, 2-methylthioATP) known to increase intracellular calcium concentration. Prolonged exposure to 2-methylthioATP or UTP caused increased apoptosis (Lane 7). […] Data were representative of two experiments.
The effects of agents which target the adenosine receptor on apoptosis were initially examined in isolated cardiac myocytes exposed to ischemia (for 90 minutes and 30 minutes of reoxygenation) or agents which increase intracellular calcium levels. Increasing the level of intracellular calcium concentration induces non-ischemia-related apoptosis in vitro. Apoptotic cell death of cardiac myocytes was assessed by determining the extent of smearing or “DNA laddering” on 1.5% agarose gels.

[6] = test system: cardiac ventricular myocytes cultured from chick embryos; test: Hypoxia-induced myocyte injury, agent present during prolonged (90 min) hypoxia with glucose deprivation; assay type: cell-based; conditions: agonist added upon reoxygenation after 90 minute hypoxia, kept one additional hour; hypoxia alone 26.5±1.0
[7] = target: T2, A1 receptor (Rattus norvegicus, UniProt P25099); conditions: Table II; cited from earlier work
T2 sequence (P25099 1-326): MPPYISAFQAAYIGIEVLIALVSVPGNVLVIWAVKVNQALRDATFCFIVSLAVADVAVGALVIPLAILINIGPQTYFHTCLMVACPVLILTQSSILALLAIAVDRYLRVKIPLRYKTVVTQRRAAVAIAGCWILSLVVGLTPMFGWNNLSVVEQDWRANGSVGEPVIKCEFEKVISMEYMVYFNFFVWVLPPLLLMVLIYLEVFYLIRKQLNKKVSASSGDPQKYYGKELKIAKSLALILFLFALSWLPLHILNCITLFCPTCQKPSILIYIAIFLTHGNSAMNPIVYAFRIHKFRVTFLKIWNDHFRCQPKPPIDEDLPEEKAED

[8] = target: A2a receptor (Rattus norvegicus, UniProt P30543); conditions: Table II; cited from earlier work
A2a receptor, sequence (P30543 whole entry): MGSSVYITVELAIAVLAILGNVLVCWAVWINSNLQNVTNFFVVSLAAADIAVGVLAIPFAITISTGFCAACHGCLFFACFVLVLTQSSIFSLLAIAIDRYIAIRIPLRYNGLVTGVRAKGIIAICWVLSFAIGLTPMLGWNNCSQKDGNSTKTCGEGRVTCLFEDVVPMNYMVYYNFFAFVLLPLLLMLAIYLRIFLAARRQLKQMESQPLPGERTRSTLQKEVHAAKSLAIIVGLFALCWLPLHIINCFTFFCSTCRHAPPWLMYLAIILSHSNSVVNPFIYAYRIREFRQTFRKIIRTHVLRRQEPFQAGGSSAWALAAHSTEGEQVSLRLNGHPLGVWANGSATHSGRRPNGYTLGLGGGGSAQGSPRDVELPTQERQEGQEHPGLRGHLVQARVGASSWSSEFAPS

CCNC(=O)C1OC(n2cnc3c(NC4CCCCC4)ncnc32)C(O)C1O (stereo not shown) [N^6-cyclohexyl NECA, N6-cyclohexyl 5′-N-ethylcarboxamidoadenosine]
Ki ([1]; Table II): 16 nM

CNC(=O)C1OC(n2cnc3c(NCc4cccc(C#CCNC(=O)CCC(=O)Nc5cccc(/C=C/c6nc7c(c(=O)n(C)c(=O)n7C)n6C)c5)c4)ncnc32)C(O)C1O (stereo not shown) [MRS 1528]
preconditioning effect in presence of A2a agonist CGS21680 ([2]; CGS21680 (0.3 μM)): protective effect of low concentrations of MRS1528 is attenuated by the A2a agonist CGS21680 whereas the protective effect of high concentrations of MRS1528 is not affected
preconditioning effect in presence of A2a antagonist CSC ([2]; CSC (1 μM)): unaffected by the A2a receptor antagonist CSC
preconditioning / cardioprotective effect [2]: can activate A3 receptor to induce preconditioning and can simultaneously block the A2a receptor to enhance its preconditioning effect
preconditioning / protection mediated via human adenosine A3 receptor [3]: can cause preconditioning of the cardiac myocytes via human adenosine A3 receptor

CNC(=O)C1OC(n2cnc3c(NCc4cccc(C#CCNC(=O)Cc5ccc(NC(=O)Cc6ccc(Nc7ncnc8c7ncn8C7OC(CO)C(O)C7O)cc6)cc5)c4)ncnc32)C(O)C1O (stereo not shown) [MRS 1543]
protective effect in combined presence of DPCPX and MRS1191 ([2]; DPCPX (1 μM) plus MRS1191 (1 μM)): completely abolished the protective effect of MRS1543
preconditioning / cardioprotective effect [2]: can pharmacologically precondition the cardiac myocyte and induce a potent cardioprotective effect
protective effect in presence of DPCPX ([2]; excess DPCPX (1 μM)): only partially blocked by A1 antagonist DPCPX
protective effect in presence of MRS1191 ([2]; excess MRS1191 (1 μM)): only partially attenuated by the A3 antagonist MRS1191
preconditioning / protection mediated via human adenosine A3 receptor [3]: can precondition and induces a cardioprotective effect via the human adenosine A3 receptor

NCCNC(=O)Cc1ccc(NC(=O)Cc2ccc(Nc3ncnc4c3ncn4[C@@H]3O[C@H](CO)[C@@H](O)[C@H]3O)cc2)cc1 [ADAC, N^6-[4-[[[4-[[[(2-aminoethyl)amino]carbonyl]methyl]anilino]carbonyl]methyl]phenyl]adenosine]
cardioprotective effect when present during prolonged hypoxia (CK released, % myocytes killed) [4]: able to protect the myocytes when present during the prolonged hypoxia
Ki ([1]; Compound 8 table): 4 nM

CNC(=O)C1CC(O)C(n2cnc3c(NCc4cccc(I)c4)nc(Cl)nc32)O1 (stereo not shown) [MRS 584]
creatine kinase released during prolonged simulated ischemia [4]: cardioprotective effects
preconditioning / protection mediated via human adenosine A3 receptor [3]: can exert the cardioprotective effect of preconditioning via the human adenosine A3 receptor

CNC(=O)[C@H]1O[C@@H](n2cnc3c(NCc4cccc(I)c4)nc(Cl)nc32)[C@H](O)[C@@H]1O [Cl-IB-MECA, 2-chloro-N^6-(3-iodobenzyl)adenosine-5′-N-methyluronamide]
apoptotic cell death (DNA laddering) [5]: reduced apoptotic cell death of cardiac myocytes
apoptotic cell death in the presence of 2-methylthioATP ([5]; co-incubation, no ischemia): resulted in a decrease in apoptotic cell death
apoptosis (DNA laddering) ([5]; prolonged moderate ischemia, 17 hours with 2-3% O2): reduced apoptosis
cardioprotective effect when present during prolonged hypoxia (CK released, % myocytes killed) [4]: capable of protecting the cardiac myocytes against hypoxia-induced injury
preconditioning / cardioprotective effect [2]: caused a potent cardioprotective effect
% myocytes killed [6]: 23.0±1.4%

OC[C@H]1O[C@@H](n2cnc3c(NC4CCCC4)nc(Cl)nc32)[C@H](O)[C@@H]1O [CCPA, 2-chloro-N^6-cyclopentyladenosine]
cardioprotective effect when present during prolonged hypoxia (CK released, % myocytes killed) [4]: caused a dose-dependent reduction in the percentage of myocytes killed
preconditioning / cardioprotective effect [2]: causes a pronounced cardioprotective effect in the cardiac myocyte
% myocytes killed [6]: 22.1±1.5%

CNC(=O)C1OC(n2cnc3c(NCc4cccc(I)c4)nc(NC)nc32)C(O)C1O (stereo not shown) [MRS 537]
creatine kinase released during prolonged simulated ischemia [4]: cardioprotective effects
preconditioning / protection mediated via human adenosine A3 receptor [3]: can exert the cardioprotective effect of preconditioning via the human adenosine A3 receptor

CCOC(=O)C1=C(C)NC(c2ccccc2)=C(C(=O)OCc2ccccc2)C1C#Cc1ccccc1 (stereo not shown) [MRS 1191, 3-ethyl-5-benzyl-2-methyl-6-phenyl-4-phenylethynyl-1,4-(1)-dihydropyridine-3,5-dicarboxylate]
apoptotic cell death (DNA laddering) [5]: but not the A3 antagonist (MRS1191) reduced apoptotic cell death
effect of antagonist on A1 agonist (CCPA, CHA, ADAC)-induced cardioprotection ([4]; antagonist with A1 agonist during prolonged hypoxia): neither MRS 1191 nor MRS 1097 was able to block the CCPA-induced cardioprotection
effect of antagonist on A3 agonist (IB-MECA, Cl-IB-MECA)-induced cardioprotection ([4]; antagonist with A3 agonist during prolonged hypoxia): blocked the Cl-IB-MECA-induced cardioprotection

CCNC(=O)C1OC(n2cnc3c(NC(=O)Nc4ccccc4C(F)(F)F)ncnc32)C(O)C1O (stereo not shown) [Compound 4d, N^6-((2-trifluoromethyl)carbamoyl)adenosine-5′-uronamide]
Ki [7]: 384 nM
Ki ([1]; Table II): 54 nM
Ki [8]: > 10000 nM

CNC(=O)C1OC(n2cnc3c(NOc4ccccc4)ncnc32)C(O)C1O (stereo not drawn) [Compound 11, 6-(O-Phenylhydroxylamino)purine-9-beta-ribofuranoside-5′-N-methyluronamide]
Ki [7]: 2060 nM
Ki ([1]; Table II): 1340 nM
Ki [8]: 66300 nM
